# Measurements as given in PubChem BioAssay AID1919014 (Molecular Pharmacology Branch, DTP, NCI, 2023).
# Tested on: NCI-H1341 complex spheroids, percent test/control
# Assay: Anticancer human tumor NCI-H1341 cell line growth inhibition [AhR];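 also: spheroids exposed to agents for seven days before readout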
# Conditions: for IC50: curve of first compound; for viability, T/C: stronger effect = lower value
# How it was run: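 Spheroids combined tumor cells with HUVEC endothelial cells and human MSCs as stroma. AhR antagonists were paired with standard or investigational drugs, each dosed in half-log steps down from near clinical Cmax, or from 10 microM where Cmax was unknown.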
# [1] = second compound 0.1 µM, first compound 0.0316 µM
# [2] = second compound 0.1 µM, first compound 0.1 µM
# [3] = second compound 0.316 µM, first compound 0.0316 µM
# [4] = second compound 0.316 µM, first compound 0.1 µM
# [5] = second compound 1 µM, first compound 0.0316 µM
# [6] = second compound 1 µM, first compound 0.1 µM
# [7] = second compound 3.16 µM, first compound 0.0316 µM
# [8] = second compound 3.16 µM, first compound 0.1 µM
# [9] = second compound 10 µM, first compound 0.0316 µM
# [10] = second compound 10 µM, first compound 0.1 µM
smiles,measurement,setting,value
CC1(C)CCC(CN2CCN(c3ccc(C(=O)NS(=O)(=O)c4ccc(NCC5CCOCC5)c([N+](=O)[O-])c4)c(Oc4cnc5[nH]ccc5c4)c3)CC2)=C(c2ccc(Cl)cc2)C1 + Cc1cncc(-c2nc(NCCc3c[nH]c4ccccc34)c3ncn(C(C)C)c3n2)c1,IC50,second compound 0.1 µM,> 10 µM
same,IC50,second compound 0.316 µM,> 10 µM
same,IC50,second compound 1 µM,> 10 µM
same,IC50,second compound 3.16 µM,> 10 µM
same,IC50,second compound 10 µM,< 0.0316 µM
same,"viability, T/C",[1],94.9%
same,"viability, T/C",[2],77.2%
same,"viability, T/C","second compound 0.1 µM, first compound 0.316 µM",81.5%
same,"viability, T/C","second compound 0.1 µM, first compound 1 µM",77%
same,"viability, T/C","second compound 0.1 µM, first compound 3.16 µM",64.9%
same,"viability, T/C","second compound 0.1 µM, first compound 10 µM",68.3%
same,"viability, T/C",[3],86.6%
same,"viability, T/C",[4],77.9%
same,"viability, T/C","second compound 0.316 µM, first compound 0.316 µM",71.3%
same,"viability, T/C","second compound 0.316 µM, first compound 1 µM",73.3%
same,"viability, T/C","second compound 0.316 µM, first compound 3.16 µM",66.1%
same,"viability, T/C","second compound 0.316 µM, first compound 10 µM",78.1%
same,"viability, T/C",[5],79.4%
same,"viability, T/C",[6],80.9%
same,"viability, T/C","second compound 1 µM, first compound 0.316 µM",81.6%
same,"viability, T/C","second compound 1 µM, first compound 1 µM",71.8%
same,"viability, T/C","second compound 1 µM, first compound 3.16 µM",63.9%
same,"viability, T/C","second compound 1 µM, first compound 10 µM",60.3%
same,"viability, T/C",[7],70.6%
same,"viability, T/C",[8],66.7%
same,"viability, T/C","second compound 3.16 µM, first compound 0.316 µM",66.1%
same,"viability, T/C","second compound 3.16 µM, first compound 1 µM",53.9%
same,"viability, T/C","second compound 3.16 µM, first compound 3.16 µM",64.1%
same,"viability, T/C","second compound 3.16 µM, first compound 10 µM",70.5%
same,"viability, T/C",[9],49.9%
same,"viability, T/C",[10],43.3%
same,"viability, T/C","second compound 10 µM, first compound 0.316 µM",45.2%
same,"viability, T/C","second compound 10 µM, first compound 1 µM",39.8%
same,"viability, T/C","second compound 10 µM, first compound 3.16 µM",42%
same,"viability, T/C","second compound 10 µM, first compound 10 µM",41.9%
CCN(c1cc(-c2ccc(CN3CCOCC3)cc2)cc(C(=O)NCc2c(C)cc(C)[nH]c2=O)c1C)C1CCOCC1 + Cc1cncc(-c2nc(NCCc3c[nH]c4ccccc34)c3ncn(C(C)C)c3n2)c1,IC50,second compound 0.1 µM,> 3 µM
same,IC50,second compound 0.316 µM,> 3 µM
same,IC50,second compound 1 µM,> 3 µM
same,IC50,second compound 3.16 µM,> 3 µM
same,IC50,second compound 10 µM,< 0.00949 µM
same,"viability, T/C","second compound 0.1 µM, first compound 0.00949 µM",72.4%
same,"viability, T/C","second compound 0.1 µM, first compound 0.03 µM",91.7%
same,"viability, T/C","second compound 0.1 µM, first compound 0.0949 µM",68.9%
same,"viability, T/C","second compound 0.1 µM, first compound 0.3 µM",70.9%
same,"viability, T/C","second compound 0.1 µM, first compound 0.949 µM",74.5%
same,"viability, T/C","second compound 0.1 µM, first compound 3 µM",63.9%
same,"viability, T/C","second compound 0.316 µM, first compound 0.00949 µM",97.3%
same,"viability, T/C","second compound 0.316 µM, first compound 0.03 µM",82.3%
same,"viability, T/C","second compound 0.316 µM, first compound 0.0949 µM",89%
same,"viability, T/C","second compound 0.316 µM, first compound 0.3 µM",76.1%
same,"viability, T/C","second compound 0.316 µM, first compound 0.949 µM",85%
same,"viability, T/C","second compound 0.316 µM, first compound 3 µM",76.8%
same,"viability, T/C","second compound 1 µM, first compound 0.00949 µM",69.5%
same,"viability, T/C","second compound 1 µM, first compound 0.03 µM",86.7%
same,"viability, T/C","second compound 1 µM, first compound 0.0949 µM",69.8%
same,"viability, T/C","second compound 1 µM, first compound 0.3 µM",72%
same,"viability, T/C","second compound 1 µM, first compound 0.949 µM",65%
same,"viability, T/C","second compound 1 µM, first compound 3 µM",57.5%
same,"viability, T/C","second compound 3.16 µM, first compound 0.00949 µM",66.1%
same,"viability, T/C","second compound 3.16 µM, first compound 0.03 µM",77.3%
same,"viability, T/C","second compound 3.16 µM, first compound 0.0949 µM",66.4%
same,"viability, T/C","second compound 3.16 µM, first compound 0.3 µM",67.3%
same,"viability, T/C","second compound 3.16 µM, first compound 0.949 µM",56.7%
same,"viability, T/C","second compound 3.16 µM, first compound 3 µM",54.4%
same,"viability, T/C","second compound 10 µM, first compound 0.00949 µM",40.6%
same,"viability, T/C","second compound 10 µM, first compound 0.03 µM",41.7%
same,"viability, T/C","second compound 10 µM, first compound 0.0949 µM",44.1%
same,"viability, T/C","second compound 10 µM, first compound 0.3 µM",33.4%
same,"viability, T/C","second compound 10 µM, first compound 0.949 µM",34.4%
same,"viability, T/C","second compound 10 µM, first compound 3 µM",32.5%
Cn1ncnc1C1c2n[nH]c(=O)c3cc(F)cc(c23)NC1c1ccc(F)cc1 (stereo not given) + Cc1cncc(-c2nc(NCCc3c[nH]c4ccccc34)c3ncn(C(C)C)c3n2)c1,IC50,second compound 0.1 µM,> 0.1 µM
same,IC50,second compound 0.316 µM,> 0.1 µM
same,IC50,second compound 1 µM,> 0.1 µM
same,IC50,second compound 3.16 µM,> 0.1 µM
same,IC50,second compound 10 µM,< 0.000316 µM
same,"viability, T/C","second compound 0.1 µM, first compound 0.000316 µM",99.9%
same,"viability, T/C","second compound 0.1 µM, first compound 0.001 µM",98.5%
same,"viability, T/C","second compound 0.1 µM, first compound 0.00316 µM",93.4%
same,"viability, T/C","second compound 0.1 µM, first compound 0.01 µM",89.3%
same,"viability, T/C",[1],80.6%
same,"viability, T/C",[2],69.1%
same,"viability, T/C","second compound 0.316 µM, first compound 0.000316 µM",87%
same,"viability, T/C","second compound 0.316 µM, first compound 0.001 µM",86.8%
same,"viability, T/C","second compound 0.316 µM, first compound 0.00316 µM",89.2%
same,"viability, T/C","second compound 0.316 µM, first compound 0.01 µM",91.7%
same,"viability, T/C",[3],66.8%
same,"viability, T/C",[4],73.4%
same,"viability, T/C","second compound 1 µM, first compound 0.000316 µM",78.2%
same,"viability, T/C","second compound 1 µM, first compound 0.001 µM",79.8%
same,"viability, T/C","second compound 1 µM, first compound 0.00316 µM",88.2%
same,"viability, T/C","second compound 1 µM, first compound 0.01 µM",95.6%
same,"viability, T/C",[5],80.6%
same,"viability, T/C",[6],64.5%
same,"viability, T/C","second compound 3.16 µM, first compound 0.000316 µM",73.9%
same,"viability, T/C","second compound 3.16 µM, first compound 0.001 µM",75.6%
same,"viability, T/C","second compound 3.16 µM, first compound 0.00316 µM",75.6%
same,"viability, T/C","second compound 3.16 µM, first compound 0.01 µM",72.6%
same,"viability, T/C",[7],77.2%
same,"viability, T/C",[8],62.5%
same,"viability, T/C","second compound 10 µM, first compound 0.000316 µM",38.7%
same,"viability, T/C","second compound 10 µM, first compound 0.001 µM",40.6%
same,"viability, T/C","second compound 10 µM, first compound 0.00316 µM",43.9%
same,"viability, T/C","second compound 10 µM, first compound 0.01 µM",42.1%
same,"viability, T/C",[9],36.1%
same,"viability, T/C",[10],40.2%
